Measured values published in PMC12067444, “Synthesis and Pharmacological Characterization of Novel Peripheral Cannabinoid-1 Receptor Blockers Based on a Tricyclic Scaffold” (Journal of Medicinal Chemistry, 2025).
Read-outs that look alike come from different tables or passages of the source.

Legend:
[1] = molecular target: hERG cardiac potassium channel (Homo sapiens, UniProt Q12809); assay: hERG automated patch clamp (SyncroPatch 384PE); type: cell-based; settings: whole cell hERG currents
[2] = system: HepG2 cells; assay: Cell viability assay (CellTiter Glo); type: cell-based; settings: 72 h; for IC50: Homo sapiens
Procedure: Cell viability assay. To assess the cell viability, which indicates the toxicity of the novel compounds, a total of 3,000 HepG2 cells were seeded into a 384-well plate. The compounds were then dispensed onto the cell plate using a Tecan D300e digital dispenser. Following compound addition, 35 μL CellTiter Glo reagent was added to all wells of the assay plate, and the plate was mixed for 30 sec on an or bital shaker to lyse cells. Subsequently, the plate was incubated at room temperature for 10 minutes. The luminescence signal was measured using a 384-well plate reader (EnVision). The obtained data were analyzed using XL-fit software (ID Business Solutions Ltd., Software version: XL fit 5. 5. 0. 5). The percentage of inhibition was calculated using the […]
Inhibition (%) = (1-Sample / ZPE) ×100
Sample represents the test compound's luminesc e nce signal, and ZPE represents the luminescence signal f r om the zer o-percent enzyme control.

[3] = molecular target: T1, mouse CB1R (Mus musculus, UniProt P47746); assay: Radioligand competition displacement binding, [3H]CP-55,940, mouse brain membranes
T1 construct: crude membranes from mouse brain; from tissue; host or cells: mouse brain cortex (without cerebellum) membranes, C57Bl/6Jhsd mice
T1 sequence (P47746 whole entry): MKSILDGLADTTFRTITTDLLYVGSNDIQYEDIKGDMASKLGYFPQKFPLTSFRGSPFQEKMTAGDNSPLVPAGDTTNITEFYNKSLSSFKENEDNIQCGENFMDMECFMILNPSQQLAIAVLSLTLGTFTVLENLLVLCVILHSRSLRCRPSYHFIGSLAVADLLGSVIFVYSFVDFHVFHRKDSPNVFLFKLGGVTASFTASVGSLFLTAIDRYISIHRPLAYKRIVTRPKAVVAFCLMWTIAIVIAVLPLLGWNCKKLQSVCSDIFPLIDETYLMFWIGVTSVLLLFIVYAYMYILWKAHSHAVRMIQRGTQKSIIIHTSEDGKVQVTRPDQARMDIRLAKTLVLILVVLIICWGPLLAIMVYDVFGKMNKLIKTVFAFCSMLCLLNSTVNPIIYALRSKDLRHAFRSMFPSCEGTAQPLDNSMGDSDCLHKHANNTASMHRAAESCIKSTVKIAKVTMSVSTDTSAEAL
Procedure: (§1) BNS compounds’ binding to CB1R and CB2R was assessed in competition displacement assays using [^3H]CP-55,940 as the radioligand and crude membranes from mouse brain or human cells overexpressing the CB1R or CB2R. All data were in triplicates with Ki values determined from three independent experiments. See SI for a detailed procedure.
Supplementary Experimental Methods
Brain membrane preparation for CB1R b i nd i ng . The mouse cortex, excluding the cerebellum, was dissected from 6-week-old C57Bl/6Jhsd mice (Harlan, Israel). The tissue was homogenized in 4 mL Buffer 1 (320 mM sucrose, 2 mM EDTA, 5 m M MgCl 2) using a glass-Teflon homogenizer and Hei-T ORQUE 200 (Heidolph; Cat# 17-012- 002- 25 -1) homogenizer set to 132 rpm. After homogenization, the mixture was centrifuged at 1,600 × g for 10 min at four °C, and the resulting supernatant was kept on ice. The pellet (P1) was discarded, and the remaining supernatant was subje cted to additional rounds of resuspension in 4 mL Buffer 1 followed by centrifugations, repeating this process three times. The pellets obtained from these centrifugations were discarded, and the three supernatant fractions were combined and subjected to higher-speed centrifugation at 39,000 × g for 15 min at f ou r °C. […] This resuspended pellet ( P 2 ) was incubated at 37 °C for 10 min and then centrifuged at 23, 000 × g for 10 min at 4°C.
After centrifugation, the pellet (P2) was resuspended in 5 mL Buffer 2 and further incubated at 30 °C for 40 min. Following this incubation, the suspension was centrifuged at 11,000 × g for 15 min at 4 °C. The pellet (P2) was resuspended in 2 mL Buffer 3 containing 50 mM TRIS HCl pH 7.4, 1 mM EDTA, and 3 mM MgCl 2. T h e protein concentration of the final suspension was determined using the BCA assay.
Subsequently, the suspension was diluted to a final concentration of 2 mg/mL in Buffer 3, aliquoted on ice, and stored at - 80 °C for further use.
CB1R and CB2R binding. Binding to the CB1R/CB2R was asse ss ed using competition displacement as says with [ 3H] CP -55,940 as the radioligand. Purified membranes from the mouse brain were utilized for CB1R assessment (as described above). Purified […]
membranes from cells overexpressing human CB2R ( Char les River CAT # A618) w e r e employed for CB2R evaluation.
For mouse CB1R binding assays, the novel compounds were dissolved in dimethyl sulfoxide (DMSO) to reach a final concentration of 10 mM. Each compound was then diluted in Buffer 3 (as described above) supplemented with 0.14% BSA, resulting in concentrations ranging from 10^-4 M to 10^-10 M. Triplicates of 100 µL of each concentration were dispensed into siliconized glass tubes. At the same time, 100 µL of Buffer 3 with 0.14% BSA was dispensed into three tubes as blanks. CB1R b r a i n membranes (20 µg) were added to each tube and diluted with 800 µL Buffer 3 with 0.14% BSA. Subsequently, 5 nM of [ 3H] CP -55,940 (100 µL) was added to each tube.
The tubes were sealed with parafilm and incubated with shaking (120 rpm) in a water bath at 30 °C for 1 hour. Following incubation, 2 mL of cold Buffer 4 (50 mM TRIS HCl pH 7.4, 1 mg/mL BSA) was added to each tube.
To harvest the content of each tube, a Brandel M-24R Vacuum Harvester was employed, with a wet WHATMAN GF/B filter paper (Fired) (one membrane for 12 tubes) placed in the harvester after being washed twice with Buffer 4. The filter membrane in the harvester absorbed the full content of each tube. Then, the filter membrane was wash ed six times with Buffer 4. Each filter -glass membrane tube wa s excised and transferred to a 20 mL glass tube co ntaining a 5 mL ULTIMA GOLD scintillation cocktail. […]

[4] = molecular target: T2, human CB1R (Homo sapiens, UniProt P21554); assay: Radioligand competition displacement binding, [3H]CP-55,940, membranes with human CB1R
T2 construct: purchased PerkinElmer RBHCB1M400UA
T2 sequence (P21554 whole entry): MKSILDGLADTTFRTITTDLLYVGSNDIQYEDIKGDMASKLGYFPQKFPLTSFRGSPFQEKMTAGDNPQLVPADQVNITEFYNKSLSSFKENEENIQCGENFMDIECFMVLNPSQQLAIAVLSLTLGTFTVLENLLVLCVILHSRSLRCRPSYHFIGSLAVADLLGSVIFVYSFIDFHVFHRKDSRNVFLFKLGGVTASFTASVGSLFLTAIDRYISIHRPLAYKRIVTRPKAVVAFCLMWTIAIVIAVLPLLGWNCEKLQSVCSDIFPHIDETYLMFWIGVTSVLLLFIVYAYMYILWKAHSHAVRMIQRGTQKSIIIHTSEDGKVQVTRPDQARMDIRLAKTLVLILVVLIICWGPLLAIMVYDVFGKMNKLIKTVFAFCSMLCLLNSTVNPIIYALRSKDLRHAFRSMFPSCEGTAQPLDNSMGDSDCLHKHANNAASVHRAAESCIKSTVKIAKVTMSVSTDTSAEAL
Procedure: as §1, with “procedure. […]” for “procedure.”
Radioligand binding assays were performed to asse ss the binding affinity of the different compounds to hCB1R (RBHCB1M4 00UA; Per kinElmer) or hCB 2R
(RBXCB2 M400UA; PerkinElmer). Competition displacement as says w ere employed, […]
utilizing [3H] C P -55,940 as the radioligand and crude membranes from humans for CB1 R or CB2 R. T he compounds were tested at various concentrations (eight points with a five-fold serial dilution starting at two m M) , and their ability to displace [3H] CP - 55, 940 was evaluated. Upon completion of the binding assays, the reaction mixture was filtered through GF/C plates, followed by four washes with cold wash buffer. After drying for one hour, 50 μL of Perkin Elmer Microscint 20 cocktail was added to the filter plate wells, and the bound [3H] C P -55,940 radioligand was measured using a β counter. All data points were duplicated, and Ki values were determined from two independent experiments using GraphPad Prism 7.02 analysis software, extracted through nonlinear regression analysis. […]

[5] = read-out: cell viability Absolute IC50
[6] = read-out: cell viability relative IC50
[7] = [3H]CP-55,940 displacement, mouse brain membranes, read-out: CB1R mKi
[8] = human CB1R, read-out: CB1R hIC50

Sequence of hERG cardiac potassium channel (Q12809 whole entry): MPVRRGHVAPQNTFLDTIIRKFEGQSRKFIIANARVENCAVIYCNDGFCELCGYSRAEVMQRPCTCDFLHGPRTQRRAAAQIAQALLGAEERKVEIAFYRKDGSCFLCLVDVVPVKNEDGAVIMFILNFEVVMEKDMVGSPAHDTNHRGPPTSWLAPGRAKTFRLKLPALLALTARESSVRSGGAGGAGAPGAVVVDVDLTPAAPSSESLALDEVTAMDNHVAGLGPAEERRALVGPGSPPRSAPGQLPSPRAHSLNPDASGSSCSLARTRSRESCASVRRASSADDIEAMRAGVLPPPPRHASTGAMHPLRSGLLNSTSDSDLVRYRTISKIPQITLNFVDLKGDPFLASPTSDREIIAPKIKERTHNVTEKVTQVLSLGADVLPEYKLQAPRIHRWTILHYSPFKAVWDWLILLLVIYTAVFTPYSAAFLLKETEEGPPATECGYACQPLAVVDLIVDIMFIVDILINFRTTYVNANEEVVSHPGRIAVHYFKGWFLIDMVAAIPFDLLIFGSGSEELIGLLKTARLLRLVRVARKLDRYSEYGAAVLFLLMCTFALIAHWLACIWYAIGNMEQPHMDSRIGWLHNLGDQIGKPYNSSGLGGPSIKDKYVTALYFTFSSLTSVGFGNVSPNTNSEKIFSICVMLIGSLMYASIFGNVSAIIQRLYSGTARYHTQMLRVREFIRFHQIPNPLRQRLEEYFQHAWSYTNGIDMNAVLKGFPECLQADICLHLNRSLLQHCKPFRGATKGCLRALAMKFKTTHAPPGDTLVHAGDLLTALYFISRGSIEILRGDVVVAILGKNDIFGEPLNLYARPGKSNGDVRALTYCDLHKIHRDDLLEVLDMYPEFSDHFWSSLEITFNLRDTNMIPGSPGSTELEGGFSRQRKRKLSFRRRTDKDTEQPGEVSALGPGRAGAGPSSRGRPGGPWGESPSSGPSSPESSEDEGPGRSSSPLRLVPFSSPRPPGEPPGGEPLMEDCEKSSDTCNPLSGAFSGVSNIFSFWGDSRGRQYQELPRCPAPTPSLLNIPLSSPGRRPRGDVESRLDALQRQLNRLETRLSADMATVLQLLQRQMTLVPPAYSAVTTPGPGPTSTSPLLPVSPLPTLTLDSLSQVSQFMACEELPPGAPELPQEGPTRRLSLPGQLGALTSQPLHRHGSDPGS

Compound | IC50 [1] [µM] | Bottom (%) of cell viability inhibition curve [2] [%] | Slope of cell viability inhibition curve [2] | Top (%) of cell viability inhibition curve [2] [%] | IC50 [2, 5] [µM] | IC50 [2, 6] [µM] | Ki [3] [nM] | IC50 [4] [nM] | Ki [3, 7] [nM] | Ki ([4]; [3H]CP-55,940 displacement, human CB1R membranes, read-out: CB1R hKi) [nM] | IC50 [4, 8] [nM]
O=S(=O)(NC1CCCOc2c1nn(-c1ccccc1Cl)c2-c1ccc(Cl)cc1)c1ccc(Cl)cc1 (stereo not shown) [BNS808, 4-chloro-N-[2-(2-chlorophenyl)-3-(4-chlorophenyl)-5,6,7,8-tetrahydrooxepino[3,2-c]pyrazol-8-yl]benzenesulfonamide] | 5.39 | -8.11 | 3.39 | 62.98 | 26.2 | 16.8 | 0.7 | 0.8 |  |  | 
CS(=O)(=O)N1CCC(C(=O)NC2CCCOc3c2nn(-c2ccccc2Cl)c3-c2ccc(Cl)cc2)CC1 (stereo not shown) [BNS815, N-[2-(2-Chlorophenyl)-3-(4-chlorophenyl)-5,6,7,8-tetrahydrooxepino[3,2-c]pyrazol-8-yl]-1-methylsulfonyl-piperidine-4-carboxamide] | 4.86 | -9.25 | 3.71 | 80.41 | 55.9 | 46.7 |  |  | 18 | 9.09 | 10.1
Cc1ccc(S(=O)(=O)NC2CCCOc3c2nn(-c2ccccc2Cl)c3-c2ccc(Cl)cc2)cc1 (stereo not shown) [BNS807] | 18 | -12.17 | 1.52 | 21.39 | > 100 | 17.9 |  |  | 10 |  | 1.5
